The text below walks through data of ChEMBL document CHEMBL1152107 (Bioorg Med Chem Lett, 1997).

In general, IC50 refers to the midpoint of a concentration-inhibition curve. Read a high IC50 as weaker potency. By T/C is commonly meant the result in the treated group divided by that in the control group, in per cent.

In experiment [1] the test system is HCT-116. In words: The compound was evaluated for the cytotoxicity against human colon cancer cell lines(HCT116), activity expressed as IC50 vs IC50 of Paclitaxel. In kind it is functional.
Experiment [2] addresses Tubulin alpha chain (Sus scrofa) (UniProt P02550). In words: The compound was evaluated in vitro in a tubulin polymerization assay, activity expressed as potency of compound relative to Paclitaxel. It counts as functional.
For experiment [3], the system named is HCT-116. In words: The compound was evaluated in vitro for inhibition of human colon cancer cell line HCT116. In kind it is functional, cell-based.
For another experiment, the system named is M109. In words: The compound was evaluated in vivo for the T/C ratio against M-109 lung carcinoma. It counts as functional, Mus musculus.

Sequence of Tubulin alpha chain (Sus scrofa) (P02550 whole entry, looked up): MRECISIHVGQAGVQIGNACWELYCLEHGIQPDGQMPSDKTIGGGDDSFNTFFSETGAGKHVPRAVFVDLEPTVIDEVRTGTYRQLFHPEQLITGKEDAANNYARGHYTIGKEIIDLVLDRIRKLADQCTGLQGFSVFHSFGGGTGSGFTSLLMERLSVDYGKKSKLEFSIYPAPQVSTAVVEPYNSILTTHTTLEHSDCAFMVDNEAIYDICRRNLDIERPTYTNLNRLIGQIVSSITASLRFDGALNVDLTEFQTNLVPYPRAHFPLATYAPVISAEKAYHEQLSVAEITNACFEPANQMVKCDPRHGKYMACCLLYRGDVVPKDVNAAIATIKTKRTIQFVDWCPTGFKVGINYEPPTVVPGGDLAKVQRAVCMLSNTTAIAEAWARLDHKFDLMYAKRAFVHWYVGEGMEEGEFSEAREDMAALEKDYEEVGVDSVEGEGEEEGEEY

Consider `CC(=O)O[C@H]1C(=O)[C@@]2(C)[C@H]([C@H](OC(=O)c3ccccc3)[C@]3(O)C[C@H](OC(=O)[C@H](O)[C@@H](O)c4ccccc4)C(C)=C1C3(C)C)[C@]1(OC(C)=O)CO[C@@H]1C[C@@H]2O`, for which the Ratio (with HCT-116 [1]; in experiment [2]) was greater than 100 throughout. This molecule also had a 50% inhibitory concentration (IC50) in the experiment with HCT-116 [3] greater than 0.2 µM.
For `CC(=O)O[C@@]12CO[C@@H]1C[C@H](O)[C@@]1(C)C(=O)[C@H](O)C3=C(C)[C@@H](OC(=O)[C@H](O)[C@@H](OC(=O)NC(C)(C)C)c4ccccc4)C[C@@](O)([C@@H](OC(=O)c4ccccc4)C12)C3(C)C` (some centres not stated), in that order: 5.1, 7.8 and 0.0103 µM.
For `CC(=O)O[C@H]1C(=O)[C@@]2(C)[C@H]([C@H](OC(=O)c3ccccc3)[C@]3(O)C[C@H](OC(=O)[C@H](O)[C@@H](OC(=O)NC(C)(C)C)c4ccccc4)C(C)=C1C3(C)C)[C@]1(OC(C)=O)CO[C@@H]1C[C@@H]2O`, the Ratio was 3.3 with HCT-116 [1] and 1.5 in experiment [2]. Also, the T/C with M109 was 166%. Besides, in the experiment with HCT-116 [3], it took 0.0066 µM to reach half-maximal inhibition (IC50).
As to `CC(=O)O[C@H]1C(=O)[C@@]2(C)[C@H]([C@H](OC(=O)c3ccccc3)[C@]3(O)C[C@H](OC(=O)[C@H](O)[C@@H](NC(=O)c4ccccc4)c4ccccc4)C(C)=C1C3(C)C)[C@]1(OC(C)=O)CO[C@@H]1C[C@@H]2O` [PACLITAXEL], in the experiment on HCT-116 [1], the Ratio is listed as 1. The T/C in the experiment with M109 turned out to be 166%.
